Measured values: patent US20180044685A1, “APPLICATION OF SYK SERVING AS THERAPEUTIC TARGET FOR HEPATIC FIBROSIS/HEPATIC CIRRHOSIS” (priority 2015, published 2018)

What was measured:
[1] = system: chronic lymphocytic leukemia; settings: phase II clinical trials of chronic lymphocytic leukemia; cited from earlier work
[2] = system: mouse hepatic fibrosis model induced by CCl4; test: Mouse hepatic fibrosis model induced by carbon tetrachloride (CCl4); format: in vivo; settings: gavage 5 mg/kg once a day, 6 weeks
Description: Mouse hepatic fibrosis model: male C577BL/6 mice (8-week old) were used with 8 in each group and were injected intra-abdominally with 0.2 ml (diluted by olive oil) of 10% CCl4 twice a week; and a control group was injected intra-abdominally with an equal volume of olive oil for 18 consecutive weeks.

For `c1cn2cc(-c3ccc4cn[nH]c4c3)nc(Nc3ccc(N4CCOCC4)cc3)c2n1` [GS-9973, Entospletinib], the effective rate [1] is listed as 91% and the “generation of hepatic collagen (Sirius Red staining)” value [2] is listed as “remarkably inhibit”.
